IC50 data for 22 compounds are collected here from patent US9579314B2 (priority 2015, dated 2017).

The first assay deals with Human β2 adrenoceptor (Homo sapiens, UniProt P07550). Particulars: read-out: B2 binding affinity.
Human β2 adrenoceptor, sequence (P07550 whole entry): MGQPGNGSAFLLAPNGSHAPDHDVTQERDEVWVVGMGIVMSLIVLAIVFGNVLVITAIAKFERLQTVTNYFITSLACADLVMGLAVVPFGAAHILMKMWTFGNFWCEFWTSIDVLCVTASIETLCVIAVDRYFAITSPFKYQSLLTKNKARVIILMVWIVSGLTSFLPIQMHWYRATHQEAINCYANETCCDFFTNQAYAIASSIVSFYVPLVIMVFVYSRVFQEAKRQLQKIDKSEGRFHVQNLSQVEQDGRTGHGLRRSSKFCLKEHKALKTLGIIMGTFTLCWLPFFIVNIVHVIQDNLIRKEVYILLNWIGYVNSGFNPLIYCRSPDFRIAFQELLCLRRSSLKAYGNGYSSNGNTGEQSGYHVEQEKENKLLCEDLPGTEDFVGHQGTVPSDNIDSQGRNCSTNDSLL
For `O=C(OCC1CCN(Cc2ccccc2)CC1)[C@@](O)(c1ccccc1)c1cccc(OCCCCCCNCC(O)c2ccc(O)c3[nH]c(=O)ccc23)c1` (stereo in doubt) [Compound 27, (R)-(1-benzylpiperidin-4-yl)methyl 2-hydroxy-2-(3-((6-(((R)-2-hydroxy-2-(8-hydroxy-2-oxo-1,2-dihydroquinolin-5-yl)ethyl)amino)hexyl)oxy)phenyl)-2-phenylacetate], the IC50 is 0.3 to 3 nM. On the same count and under the same terms, as for `O=C(OCC1CCN(Cc2ccccc2)CC1)[C@](O)(c1ccccc1)c1cccc(OCCCCCCNCC(O)c2ccc(O)c3[nH]c(=O)ccc23)c1` (stereo in doubt) [Compound 29, (S)-(1-benzylpiperidin-4-yl)methyl 2-hydroxy-2-(3-((6-(((R)-2-hydroxy-2-(8-hydroxy-2-oxo-1,2-dihydroquinolin-5-yl)ethyl)amino)hexyl)oxy)phenyl)-2-phenylacetate], the figure is less than 0.3 nM; as for `O=C(OCC1CCN(Cc2ccccc2)CC1)[C@](O)(c1ccccc1)c1cccc(OCCCCCCCCNCC(O)c2ccc(O)c3[nH]c(=O)ccc23)c1` (stereo in doubt) [Compound 30, (S)-(1-benzylpiperidin-4-yl)methyl 2-hydroxy-2-(3-((8-(((R)-2-hydroxy-2-(8-hydroxy-2-oxo-1,2-dihydroquinolin-5-yl)ethyl)amino)octyl)oxy)phenyl)-2-phenylacetate], 0.3 to 3 nM. Still for that read-out and setting: as for `O=C(NCCc1cccc(C(O)(C(=O)OCC2CCN(Cc3ccccc3)CC2)c2ccccc2)c1)c1ccc(CNCC(O)c2ccc(O)c3[nH]c(=O)ccc23)cc1` (stereo in doubt) [Compound 39, (1-benzylpiperidin-4-yl)methyl 2-hydroxy-2-(3-(2-(4-((((R)-2-hydroxy-2-(8-hydroxy-2-oxo-1,2-dihydroquinolin-5-yl)ethyl)amino)methyl)benzamido)ethyl)phenyl)-2-phenylacetate], the figure is less than 0.3 nM; as for `CN(C)CCOC(=O)[C@](O)(c1ccccc1)c1cccc(OCCCCCNC[C@H](O)c2ccc(O)c3[nH]c(=O)ccc23)c1` [Compound 17, (S)-2-(dimethylamino)ethyl 2-hydroxy-2-(3-((5-(((R)-2-hydroxy-2-(8-hydroxy-2-oxo-1,2-dihydroquinolin-5-yl)ethyl)amino)pentyl)oxy)phenyl)-2-phenylacetate], 0.3 to 3 nM; as for `CN(C)CCOC(=O)[C@@](O)(c1ccccc1)c1cccc(OCCCCCNC[C@H](O)c2ccc(O)c3[nH]c(=O)ccc23)c1` [Compound 18, (R)-2-(dimethylamino)ethyl 2-hydroxy-2-(3-((5-(((R)-2-hydroxy-2-(8-hydroxy-2-oxo-1,2-dihydroquinolin-5-yl)ethyl)amino)pentyl)oxy)phenyl)-2-phenylacetate], less than 0.3 nM.

Turning to `CN1CC[C@@H](OC(=O)[C@](O)(c2ccccc2)c2cccc(OCCCCCNC[C@H](O)c3ccc(O)c4[nH]c(=O)ccc34)c2)C1` [Compound 19], the IC50 is less than 0.3 nM.

As for `CN1CC[C@@H](OC(=O)[C@@](O)(c2ccccc2)c2cccc(OCCCCCNC[C@H](O)c3ccc(O)c4[nH]c(=O)ccc34)c2)C1` [Compound 20, (R)-(R)-1-methylpyrrolidin-3-yl 2-hydroxy-2-(3-((5-(((R)-2-hydroxy-2-(8-hydroxy-2-oxo-1,2-dihydroquinolin-5-yl)ethyl)amino)pentyl)oxy)phenyl)-2-phenylacetate], the IC50 is less than 0.3 nM. Regarding `CN1CCC(OC(=O)[C@](O)(c2ccccc2)c2cccc(OCCCCCNC[C@H](O)c3ccc(O)c4[nH]c(=O)ccc34)c2)CC1` [Compound 21, (S)-1-methylpiperidin-4-yl 2-hydroxy-2-(3-((5-(((R)-2-hydroxy-2-(8-hydroxy-2-oxo-1,2-dihydroquinolin-5-yl)ethyl)amino)pentyl)oxy)phenyl)-2-phenylacetate], the IC50 is less than 0.3 nM. On to `CN1CCC(OC(=O)[C@@](O)(c2ccccc2)c2cccc(OCCCCCNC[C@H](O)c3ccc(O)c4[nH]c(=O)ccc34)c2)CC1` [Compound 22, (R)-1-methylpiperidin-4-yl 2-hydroxy-2-(3-((5-(((R)-2-hydroxy-2-(8-hydroxy-2-oxo-1,2-dihydroquinolin-5-yl)ethyl)amino)pentyl)oxy)phenyl)-2-phenylacetate], for which the IC50 is less than 0.3 nM. Consider `CN1CCC[C@@H](OC(=O)[C@](O)(c2ccccc2)c2cccc(OCCCCCNC[C@H](O)c3ccc(O)c4[nH]c(=O)ccc34)c2)C1` [Compound 25], for which the IC50 is less than 0.3 nM. `CN1CC(OC(=O)[C@](O)(c2ccccc2)c2cccc(OCCCCCNC[C@H](O)c3ccc(O)c4[nH]c(=O)ccc34)c2)C1` [Compound 26, (S)-1-methylazetidin-3-yl 2-hydroxy-2-(3-((5-(((R)-2-hydroxy-2-(8-hydroxy-2-oxo-1,2-dihydroquinolin-5-yl)ethyl)amino)pentyl)oxy)phenyl)-2-phenylacetate]: the IC50 was less than 0.3 nM. Consider `CN1CC[C@@H](OC(=O)C(O)(c2ccccc2)c2cccc(C(=O)NCCCCNC[C@H](O)c3ccc(O)c4[nH]c(=O)ccc34)c2)C1` (stereo partly drawn) [Compound 49, (R)-1-methylpyrrolidin-3-yl 2-hydroxy-2-(3-((4-(((R)-2-hydroxy-2-(8-hydroxy-2-oxo-1,2-dihydroquinolin-5-yl)ethyl)amino)butyl)carbamoyl)phenyl)-2-phenylacetate diformate], for which the IC50 is less than 0.3 nM. `O=C(NCCCOc1cccc([C@](O)(C(=O)OC2CCN(Cc3ccccc3)CC2)c2ccccc2)c1)c1ccc(CNC[C@H](O)c2ccc(O)c3[nH]c(=O)ccc23)cc1` [Compound 158, 1-Benzylpiperidin-4-yl (S)-2-hydroxy-2-(3-(3-(4-((((R)-2-hydroxy-2-(8-hydroxy-2-oxo-1,2-dihydroquinolin-5-yl)ethyl)amino)methyl)benzamido)propoxy)phenyl)-2-phenylacetate]: the IC50 was less than 0.3 nM. On the same count and under the same terms, as for `O=C(NCCCOc1cccc([C@](O)(C(=O)OC[C@@H]2CCN(Cc3ccccc3)C2)c2ccccc2)c1)c1ccc(CNC[C@H](O)c2ccc(O)c3[nH]c(=O)ccc23)cc1` [Compound 159, ((R)-1-benzylpyrrolidin-3-yl)methyl (S)-2-hydroxy-2-(3-(3-(4-((((R)-2-hydroxy-2-(8-hydroxy-2-oxo-1,2-dihydroquinolin-5-yl)ethyl)amino)methyl)benzamido)propoxy)phenyl)-2-phenylacetate], the figure is less than 0.3 nM; as for `O=C(NCCCOc1cccc([C@](O)(C(=O)OC[C@H]2CCN(Cc3ccccc3)C2)c2ccccc2)c1)c1ccc(CNC[C@H](O)c2ccc(O)c3[nH]c(=O)ccc23)cc1` [Compound 160, ((S)-1-benzylpyrrolidin-3-yl)methyl (S)-2-hydroxy-2-(3-(3-(4-((((R)-2-hydroxy-2-(8-hydroxy-2-oxo-1,2-dihydroquinolin-5-yl)ethyl)amino)methyl)benzamido)propoxy)phenyl)-2-phenylacetate], less than 0.3 nM. Take `O=C(NCCCOc1cccc([C@](O)(C(=O)O[C@@H]2CCN(Cc3ccccc3)C2)c2ccccc2)c1)c1ccc(CNC[C@H](O)c2ccc(O)c3[nH]c(=O)ccc23)cc1` [Compound 163, (R)-1-benzylpyrrolidin-3-yl (S)-2-hydroxy-2-(3-(3-(4-((((R)-2-hydroxy-2-(8-hydroxy-2-oxo-1,2-dihydroquinolin-5-yl)ethyl)amino)methyl)benzamido)propoxy)phenyl)-2-phenylacetate]: the IC50 is less than 0.3 nM. Still for that read-out and setting: the result for `O=C(NCCCOc1cccc([C@](O)(C(=O)O[C@H]2CCN(Cc3ccccc3)C2)c2ccccc2)c1)c1ccc(CNC[C@H](O)c2ccc(O)c3[nH]c(=O)ccc23)cc1` [Compound 164, (S)-1-benzylpyrrolidin-3-yl (S)-2-hydroxy-2-(3-(3-(4-((((R)-2-hydroxy-2-(8-hydroxy-2-oxo-1,2-dihydroquinolin-5-yl)ethyl)amino)methyl)benzamido)propoxy)phenyl)-2-phenylacetate] reads 0.3 to 3 nM; that for `O=C(NCCCOc1cccc([C@](O)(C(=O)OC2CN(Cc3ccccc3)C2)c2ccccc2)c1)c1ccc(CNC[C@H](O)c2ccc(O)c3[nH]c(=O)ccc23)cc1` [Compound 165, 1-benzylazetidin-3-yl (S)-2-hydroxy-2-(3-(3-(4-((((R)-2-hydroxy-2-(8-hydroxy-2-oxo-1,2-dihydroquinolin-5-yl)ethyl)amino)methyl)benzamido)propoxy)phenyl)-2-phenylacetate], less than 0.3 nM; that for `O=C(NCc1ccc(COc2cccc([C@](O)(C(=O)OC3CCN(Cc4ccccc4)CC3)c3ccccc3)c2)cc1)Nc1ccc(CNC[C@H](O)c2ccc(O)c3[nH]c(=O)ccc23)cc1` [Compound 166, 1-Benzylpiperidin-4-yl (S)-2-hydroxy-2-(3-((4-((3-(4-((((R)-2-hydroxy-2-(8-hydroxy-2-oxo-1,2-dihydroquinolin-5-yl)ethyl)amino)methyl)phenyl)ureido)-methyl)benzyl)oxy)phenyl)-2-phenylacetate], 0.3 to 3 nM. Same read-out and setting: as for `COc1cc(NC(=O)NCc2ccc(COc3cccc([C@](O)(C(=O)OC4CCN(Cc5ccccc5)CC4)c4ccccc4)c3)cc2)ccc1CNC[C@H](O)c1ccc(O)c2[nH]c(=O)ccc12` [Compound 167, 1-benzylpiperidin-4-yl (S)-2-hydroxy-2-(3-((4-((3-(4-((((R)-2-hydroxy-2-(8-hydroxy-2-oxo-1,2-dihydroquinolin-5-yl)ethyl)amino)methyl)-3-methoxyphenyl)ureido)methyl)benzyl)oxy)phenyl)-2-phenylacetate], the figure is 0.3 to 3 nM.

Consider `COc1cc(CNC[C@H](O)c2ccc(O)c3[nH]c(=O)ccc23)ccc1NC(=O)NCc1ccc(COc2cccc([C@](O)(C(=O)OC3CCN(Cc4ccccc4)CC3)c3ccccc3)c2)cc1` [Compound 168, 1-benzylpiperidin-4-yl (S)-2-hydroxy-2-(3-((4-((3-(4-((((R)-2-hydroxy-2-(8-hydroxy-2-oxo-1,2-dihydroquinolin-5-yl)ethyl)amino)methyl)-2-methoxyphenyl)ureido)methyl)benzyl)oxy)phenyl)-2-phenylacetate], for which the IC50 was in the range of 0.3 to 3 nM.

Another assay deals with Human M3 receptor (Homo sapiens, UniProt P20309). Particulars: read-out: M3 binding affinity.
Human M3 receptor, sequence (P20309 whole entry): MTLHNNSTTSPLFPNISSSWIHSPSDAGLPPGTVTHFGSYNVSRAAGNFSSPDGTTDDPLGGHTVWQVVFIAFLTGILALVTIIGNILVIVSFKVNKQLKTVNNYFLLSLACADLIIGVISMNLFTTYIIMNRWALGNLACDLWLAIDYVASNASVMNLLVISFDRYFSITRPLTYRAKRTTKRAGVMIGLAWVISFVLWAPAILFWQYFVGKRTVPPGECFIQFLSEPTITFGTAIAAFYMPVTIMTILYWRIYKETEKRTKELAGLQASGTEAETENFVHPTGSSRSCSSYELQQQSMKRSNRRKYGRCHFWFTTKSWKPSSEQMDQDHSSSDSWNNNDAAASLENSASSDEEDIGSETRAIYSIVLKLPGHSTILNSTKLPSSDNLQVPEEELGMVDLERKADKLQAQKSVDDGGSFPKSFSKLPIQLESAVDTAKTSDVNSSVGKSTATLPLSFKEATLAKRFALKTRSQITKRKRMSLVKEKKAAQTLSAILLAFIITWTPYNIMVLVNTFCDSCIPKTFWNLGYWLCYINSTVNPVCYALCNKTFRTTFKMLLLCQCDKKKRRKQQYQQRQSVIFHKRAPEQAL
With `O=C(OCC1CCN(Cc2ccccc2)CC1)[C@@](O)(c1ccccc1)c1cccc(OCCCCCCNCC(O)c2ccc(O)c3[nH]c(=O)ccc23)c1` (stereo in doubt) [Compound 27, (R)-(1-benzylpiperidin-4-yl)methyl 2-hydroxy-2-(3-((6-(((R)-2-hydroxy-2-(8-hydroxy-2-oxo-1,2-dihydroquinolin-5-yl)ethyl)amino)hexyl)oxy)phenyl)-2-phenylacetate], the IC50 was more than 3 nM. Turning to `O=C(OCC1CCN(Cc2ccccc2)CC1)[C@](O)(c1ccccc1)c1cccc(OCCCCCCNCC(O)c2ccc(O)c3[nH]c(=O)ccc23)c1` (stereo in doubt) [Compound 29, (S)-(1-benzylpiperidin-4-yl)methyl 2-hydroxy-2-(3-((6-(((R)-2-hydroxy-2-(8-hydroxy-2-oxo-1,2-dihydroquinolin-5-yl)ethyl)amino)hexyl)oxy)phenyl)-2-phenylacetate], the IC50 was less than 0.3 nM. Turning to `O=C(OCC1CCN(Cc2ccccc2)CC1)[C@](O)(c1ccccc1)c1cccc(OCCCCCCCCNCC(O)c2ccc(O)c3[nH]c(=O)ccc23)c1` (stereo in doubt) [Compound 30, (S)-(1-benzylpiperidin-4-yl)methyl 2-hydroxy-2-(3-((8-(((R)-2-hydroxy-2-(8-hydroxy-2-oxo-1,2-dihydroquinolin-5-yl)ethyl)amino)octyl)oxy)phenyl)-2-phenylacetate], the IC50 lay within 0.3 to 3 nM. `O=C(NCCc1cccc(C(O)(C(=O)OCC2CCN(Cc3ccccc3)CC2)c2ccccc2)c1)c1ccc(CNCC(O)c2ccc(O)c3[nH]c(=O)ccc23)cc1` (stereo in doubt) [Compound 39, (1-benzylpiperidin-4-yl)methyl 2-hydroxy-2-(3-(2-(4-((((R)-2-hydroxy-2-(8-hydroxy-2-oxo-1,2-dihydroquinolin-5-yl)ethyl)amino)methyl)benzamido)ethyl)phenyl)-2-phenylacetate]: the IC50 fell in the range of 0.3 to 3 nM.
